The NIST ThermoML archive (doi:10.1021/acs.jced.7b00106)

Conditions: Hot wire method

FC(F)(F)/C=C/Cl [(E)-1-chloro-3,3,3-trifluoroprop-1-ene]
Conditions | thermal conductivity [W/m/K]
362.16 K, 19344 kPa, Liquid | 0.07625
362.18 K, 23467 kPa, Liquid | 0.07857
362.19 K, 8420 kPa, Liquid | 0.06998
362.2 K, 3010 kPa, Liquid | 0.06622
362.2 K, 8440 kPa, Liquid | 0.07
362.2 K, 45249 kPa, Liquid | 0.0878
362.2 K, 45283 kPa, Liquid | 0.08787
362.21 K, 3023 kPa, Liquid | 0.06627
362.21 K, 23488 kPa, Liquid | 0.07836
362.23 K, 790 kPa, Liquid | 0.06431
362.23 K, 805 kPa, Liquid | 0.06452
362.24 K, 5520 kPa, Liquid | 0.06804
362.24 K, 5538 kPa, Liquid | 0.06811
362.26 K, 19400 kPa, Liquid | 0.07636
362.27 K, 587 kPa, Fluid (supercritical or subcritical phases) | 0.01619
362.3 K, 11679 kPa, Liquid | 0.07201
362.3 K, 11690 kPa, Liquid | 0.07201
362.31 K, 39856 kPa, Liquid | 0.08563
362.31 K, 39891 kPa, Liquid | 0.08561
362.32 K, 26374 kPa, Liquid | 0.07971
362.32 K, 26405 kPa, Liquid | 0.07971
362.37 K, 484 kPa, Fluid (supercritical or subcritical phases) | 0.0162
362.41 K, 33911 kPa, Liquid | 0.0832
362.42 K, 8419 kPa, Liquid | 0.06999
362.42 K, 33938 kPa, Liquid | 0.08309
362.44 K, 8433 kPa, Liquid | 0.06997
362.46 K, 3010 kPa, Liquid | 0.0662
362.47 K, 3011 kPa, Liquid | 0.0662
362.47 K, 15419 kPa, Liquid | 0.0741
362.47 K, 23460 kPa, Liquid | 0.07827
362.48 K, 5516 kPa, Liquid | 0.06801
362.48 K, 15443 kPa, Liquid | 0.07414
362.48 K, 23476 kPa, Liquid | 0.07831
362.48 K, 45268 kPa, Liquid | 0.08777
362.48 K, 45271 kPa, Liquid | 0.08777
362.49 K, 790 kPa, Liquid | 0.06443
362.49 K, 5526 kPa, Liquid | 0.06804
362.5 K, 790 kPa, Liquid | 0.06446
362.51 K, 370 kPa, Fluid (supercritical or subcritical phases) | 0.01626
362.54 K, 11661 kPa, Liquid | 0.0719
362.55 K, 11680 kPa, Liquid | 0.07196
362.57 K, 39863 kPa, Liquid | 0.08553
362.58 K, 39864 kPa, Liquid | 0.08552
362.6 K, 26399 kPa, Liquid | 0.07968
362.6 K, 26401 kPa, Liquid | 0.07967
362.61 K, 19433 kPa, Liquid | 0.07636
362.65 K, 15399 kPa, Liquid | 0.07408
362.66 K, 587 kPa, Fluid (supercritical or subcritical phases) | 0.0163
362.66 K, 15425 kPa, Liquid | 0.07408
362.67 K, 8422 kPa, Liquid | 0.06992
362.68 K, 8413 kPa, Liquid | 0.06988
362.69 K, 33907 kPa, Liquid | 0.08302
362.69 K, 33929 kPa, Liquid | 0.08306
362.7 K, 19433 kPa, Liquid | 0.07633
362.74 K, 5502 kPa, Liquid | 0.06792
362.75 K, 3008 kPa, Liquid | 0.06615
362.75 K, 3026 kPa, Liquid | 0.06618
362.75 K, 5530 kPa, Liquid | 0.06798
362.75 K, 23458 kPa, Liquid | 0.07811
362.75 K, 23492 kPa, Liquid | 0.07827
362.75 K, 45227 kPa, Liquid | 0.08785
362.76 K, 484 kPa, Fluid (supercritical or subcritical phases) | 0.01624
362.76 K, 45255 kPa, Liquid | 0.08771
362.77 K, 783 kPa, Liquid | 0.06438
362.77 K, 802 kPa, Liquid | 0.06442
362.8 K, 11664 kPa, Liquid | 0.07188
362.81 K, 11670 kPa, Liquid | 0.07191
362.83 K, 15386 kPa, Liquid | 0.07403
362.86 K, 39872 kPa, Liquid | 0.08551
362.87 K, 15400 kPa, Liquid | 0.07403
362.87 K, 39835 kPa, Liquid | 0.08548
362.89 K, 367 kPa, Fluid (supercritical or subcritical phases) | 0.01631
362.89 K, 26375 kPa, Liquid | 0.07958
